Data published in US20130029983A1, “AMINOTHIENOPYRIDAZINE INHIBITORS OF TAU ASSEMBLY” (priority 2009, published 2013).
Where two headings read alike, the source gives them in different places.

Assays:
full-length tau (tau40) = target: T1, full-length tau (tau40) (Homo sapiens, UniProt P10636); assay: Tau40 fibrillization sedimentation assay; assay type: biochemical; conditions: SDS-PAGE of soluble and insoluble fractions after centrifugation; for Emax: read-out: Tau40 Sed. Assay, maximal percent inhibition of tau40 fibrillization
T1 construct: Full length tau (Tau40; amino acids 1-441); made in house
Description: The determination of compound-induced effects on the amount of tau that remains soluble upon centrifugation, and EM visualization of tau species following incubation with test compounds, were as previously described (Crowe, A., Ballatore, C., Hyde, E., Trojanowski, J. Q., and Lee, V. M. Y. (2007) Biochemical and Biophysical Research Communications 358, 1-6). […]

[1] = Brain and plasma drug levels 1 h after i.p. administration (LC-MS/MS); assay type: in vivo; conditions: mice; for B/P, ratio between brain/plasma drug level: 1 h after i.p. 5 mg/Kg
Description: Test compounds underwent preliminary evaluations of brain penetration, in which 5 mg/Kg of each compound was administered intraperitoneally (i.p.) to a group of three normal mice; drug levels in brain and plasma were determined at a single time-point (1 h) by LC-MS/MS using pre-validated calibration curves. […] However, both esters appeared to have relatively short half-lives in plasma, as indicated by the limited amount of parent drug detected after 1 h from administration of the compounds. […] CNDR-51362 was selected for full PK analysis in which brain and plasma drug levels were determined at six time points (i.e., 30 min, 1 h, 2 h, 4 h, 8 h, and 16 h). The results from this experiment, illustrated in FIG. 6A, confirmed that the total B/P exposure ratio over 16 h is 1.6. […] Finally, in order to investigate the potential for ATPZ congeners to be orally administered, we evaluated brain and plasma level of CNDR-51362 and CNDR-51349 after oral administration of 5 mg/Kg.
Brain tissue was homogenized in 10 mM ammonium acetate, pH 5.7 (1:2; w/v) using a handheld sonic homogenizer. Plasma was obtained from blood that was collected into a 1.5 mL tube containing 0.5M EDTA solution and subjected to centrifugation for 10 min. at 4500 g at 4° C. Aliquots (50 μL) of brain homogenate or plasma were mixed with 0.2 mL of acetonitrile, centrifuged at 15,000 g, and the resulting supernatants were used for subsequent LC-MS/MS analysis. The LC-MS/MS system was comprised of an Aquity HPLC and a TQ MS that was controlled using MassLynx software (Waters Corporation, Milford, Mass., USA). Compounds were detected using multiple reaction monitoring (MRM) of their specific collision-induced ion transitions. Samples (5 μL) were separated on an Aquity BEH C18 column (1.7 μm, 2.1×50 mm) at 35° C. Operation was in positive electrospray ionization mode, with mobile phase A of 0.1% (v/v) formic acid, and B of either acetonitrile or methanol with 0.1% (v/v) formic acid at a flow rate of 0.6 mL/min using a gradient from 5% to 95% B over two min., followed by wash and re-equilibration steps. The MS was operated with a desolvation temperature of 450° C. and a source temperature of 150° C. Desolvation and source nitrogen gas flows were 900 L/hr and 50 L/hr, respectively. Source and MS/MS voltages were optimized for each compound using the MassLynx auto tune utility. Standard curves were generated for each compound from brain homogenate and plasma samples that had compound added at 4, 40, 400 and 4000 ng/mL and extracted as above. Peak areas were plotted against concentration and a 1/x weighted linear regression curve was used to quantify the tissue-derived samples using the average peak area from triplicate injections.

[2] = Turbidimetric solubility in fibrillization buffer; assay type: physicochemical; conditions: 100 mM NaOAc pH 7.0 fibrillization buffer, 1% DMSO
Description: Compounds were serially diluted in DMSO to achieve a 2.5 fold dilution series from 20 mM down 8 points to […] on a 384-well master plate (Costar 3672). Aliquots (2 μL) were transferred to a clear 96-well assay plate (Fisher 12-565-501) containing 198 μL fibrillization buffer (100 mM NaOAc pH 7.0) for a 100-fold dilution (200 μM down to 0.3 μM). The plate was incubated with agitation for 2.5 h, and the absorbance at 550, 600, 650 and 700 nm was measured on a Spectramax M5 spectrophotometer. DMSO (1%) in fibrillization buffer served as a control that was subtracted from each data point. The absorbances were averaged and the concentration at which the average absorbance rose above 0.03 AU was an indication of insoluble compound, with solubility limits reported as the previous concentration in the dilution series.

K18PL tau [3] = target: T2, K18PL tau (Homo sapiens, UniProt P10636, P618L); assay: Heparin-induced K18PL tau fibrillization assay monitored by ThT fluorescence; assay type: biochemical; conditions: for Emax: read-out: K18PL (ThT) maximal percent inhibition achieved in the assay; for inhibition at 80 µM: highest tested concentration (80 μM), read-out: Tau ThT Assay % Inhib.
T2 construct: (K18PL; amino acids 244-369); made in house
Description: Tau fibril formation reactions were performed essentially as described (Crowe, A., Ballatore, C., Hyde, E., Trojanowski, J. Q., and Lee, V. M. Y. (2007) Biochemical and Biophysical Research Communications 358, 1-6). K18PL (2 μl of a 30 μM stock that also contained 0.24 μM Alexa Red-labeled K18PL) was dispensed into black 1536-well plates (Grenier) using a solenoid-based dispenser. Following transfer of 23 nL of test compound or DMSO vehicle by a pin tool from compound library plates, 2 μl/well of 40 μM heparin in reagent buffer was dispensed and the plate was centrifuged for 15 s at 1000 rpm in a table-top centrifuge. The fibrillization reaction proceeded for 6 hours at 37° C. in a humidified incubator (Kalypsys).
K18PL fibril formation was quantified with a ThT assay as previously described (Crowe, A., Ballatore, C., Hyde, E., Trojanowski, J. Q., and Lee, V. M. Y. (2007) Biochemical and Biophysical Research Communications 358, 1-6). Briefly, 1 μl/well of 62.5 μM ThT (Sigma) in 100 mM glycine, pH 8.5 (12.5 μM final concentration) was dispensed into 1536-well plates after completion of the fibrillization reaction and incubated at room temperature for 1 hour. Plates were read on an Envision fluorescence plate reader with an excitation of 450 nm and an emission setting of 510 nm.
Compound effects on tau assembly were determined for the ThT and FP assays using the formula 1−(Fcompound− FDMSO)/( Fcontrol− FDMSO), where Fcontrol denotes the median plate fluorescence values (ThT assay) or mP values (FP assay) of the non-fibrillizing K18 KD control wells, FDMSO denotes the median value of the DMSO control wells, and Fcompound denotes the compound well values. The resulting values were multiplied by 100 to obtain the percent inhibition of tau fibril formation.
(§1) The solubility of test compounds in the sodium acetate buffer used for subsequent fibrillization reactions was determined by turbidimetric measurements. Compounds were then evaluated in a heparin-induced tau assembly assay, in which the fibrillization of the truncated K18 tau fragment (comprised of four MT-binding repeats) bearing the P301L mutation (K18PL) found in FTDP-17, was monitored by thioflavine-T (ThT) binding and fluorescence (FIG. 3A). (Crowe, A.; et al., Identification of aminothienopyridazine inhibitors of tau assembly by quantitative high-throughput screening. Biochemistry 2009, 48, 7732-45.) The inhibitory activity of test compounds was then confirmed with an orthogonal sedimentation assay in which compound-treated fibrillizing mixtures were centrifuged and quantitation of K18PL tau in the soluble and insoluble fraction was performed by densitometric analyses of SDS-PAGE (FIG. 3B). […] Thus, the tau fibrillization assay was repeated in which both DMSO- and compound-treated mixtures were initially centrifuged for 30 min. prior to incubation (i.e., at time zero of the fibrillization reaction) to remove any pelletable material.

K18PL tau [4] = target: T2, K18PL tau; assay: K18PL tau centrifugation (sedimentation) assay, SDS-PAGE densitometry; assay type: biochemical; conditions: for Tau Cent. Assay % Soluble: Table 4, K18PL tau centrifugation assay; for Emax: read-out: K18PL Sed. Assay, maximal percent inhibition of K18PL fibrillization
Description: The determination of compound-induced effects on the amount of tau that remains soluble upon centrifugation, and EM visualization of tau species following incubation with test compounds, were as previously described (Crowe, A., Ballatore, C., Hyde, E., Trojanowski, J. Q., and Lee, V. M. Y. (2007) Biochemical and Biophysical Research Communications 358, 1-6).
as §1

[5] = Table 5, read-out: K18PL (ThT) IC50 value
[6] = SDS-PAGE of soluble and insoluble fractions after centrifugation
[7] = Table 4, logarithm of IC50, K18PL tau ThT fluorescence inhibition, read-out: Tau ThT Assay Log IC50 (converted)

T2 sequence (P10636 561-686 P618L): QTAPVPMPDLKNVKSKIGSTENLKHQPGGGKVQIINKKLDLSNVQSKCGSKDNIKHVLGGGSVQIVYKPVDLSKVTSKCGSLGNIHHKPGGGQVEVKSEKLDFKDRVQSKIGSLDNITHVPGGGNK
T1 sequence (P10636 1-441 isoform P10636-8): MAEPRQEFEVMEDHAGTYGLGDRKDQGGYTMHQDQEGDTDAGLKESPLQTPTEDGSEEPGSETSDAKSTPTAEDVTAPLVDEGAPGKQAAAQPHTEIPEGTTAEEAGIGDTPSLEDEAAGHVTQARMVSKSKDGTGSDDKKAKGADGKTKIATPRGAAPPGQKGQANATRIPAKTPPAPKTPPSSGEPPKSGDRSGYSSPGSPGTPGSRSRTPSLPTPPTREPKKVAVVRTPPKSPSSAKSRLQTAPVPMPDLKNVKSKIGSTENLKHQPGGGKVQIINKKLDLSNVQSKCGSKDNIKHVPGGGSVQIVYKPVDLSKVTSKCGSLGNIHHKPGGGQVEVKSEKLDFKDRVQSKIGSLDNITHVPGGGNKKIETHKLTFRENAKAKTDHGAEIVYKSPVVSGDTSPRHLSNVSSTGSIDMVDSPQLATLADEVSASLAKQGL

With CN(C)C(=O)c1nn(-c2ccc(Cl)cc2)c(=O)c2c(N)scc12 [CNDR-51361, 5-Amino-3-(4-chlorophenyl)-N,N-dimethyl-4-oxo-3,4-dihydrothieno[3,4-d]pyridazine-1-carboxamide] the “Tau40 Sed. Assay, maximal percent inhibition of tau40 fibrillization” value (full-length tau (tau40)) was 69%, the Emax (full-length tau (tau40)) was 50 to 60% and the “B/P, ratio between brain/plasma drug level” value [1] was 0.44. For the same compound, the “Water Solubility” value [2] was 32 µM, the IC50 (K18PL tau [3]; [5]) was 5300 nM and the Emax (K18PL tau [3]; Table 5) was 88%. For the same compound, the “K18PL Sed. Assay, maximal percent inhibition of K18PL fibrillization” value (K18PL tau [4]; [6]) was 69%.
In the case of CCOC(=O)c1nn(-c2ccc(N(C)C)cc2)c(=O)c2c(N)scc12 [CNDR-51359, Ethyl 5-amino-3-(4-(dimethylamino)phenyl)-4-oxo-3,4-dihydrothieno[3,4-d]pyridazine-1-carboxylate], the melting point is reported as 211 to 213 °C, the inhibition at 80 µM (K18PL tau [3]; Table 4) is reported as 68% and the IC50 (K18PL tau [3]; [7]) is reported as 3160 nM. The “Tau Cent. Assay % Soluble” value (K18PL tau [4]) was 70%.
In the case of CCOC(=O)c1nn(-c2ccccc2Br)c(=O)c2c(N)scc12 [CNDR-51421, Ethyl 5-amino-3-(2-bromophenyl)-4-oxo-3,4-dihydrothieno[3,4-d]pyridazine-1-carboxylate], the melting point is reported as 203 to 205 °C, the inhibition at 80 µM (K18PL tau [3]; Table 4) is reported as 100% and the IC50 (K18PL tau [3]; [7]) is reported as 6310 nM. The “Tau Cent. Assay % Soluble” value (K18PL tau [4]) was 66%.
For CCN(C)C(=O)c1nn(-c2ccc(Cl)cc2)c(=O)c2c(N)scc12 [CNDR-51366, 5-Amino-3-(4-chlorophenyl)-N-ethyl-N-methyl-4-oxo-3,4-dihydrothieno[3,4-d]pyridazine-1-carboxamide], the “Tau40 Sed. Assay, maximal percent inhibition of tau40 fibrillization” value (full-length tau (tau40)) was 58%, the Emax (full-length tau (tau40)) was 50 to 60% and the “B/P, ratio between brain/plasma drug level” value [1] was 0.89. The “Water Solubility” value [2] was 80 µM, the IC50 (K18PL tau [3]; [5]) was 6800 nM and the Emax (K18PL tau [3]; Table 5) was 91%. It also gave an Emax (K18PL tau [4]; [6]) of 62%.
In the case of Nc1scc2c(C(=O)O)nn(-c3ccc(Cl)cc3)c(=O)c12 [CNDR-51348, 5-Amino-3-(4-chlorophenyl)-4-oxo-3,4-dihydrothieno[3,4-d]pyridazine-1-carboxylic acid], the “Tau40 Sed. Assay, maximal percent inhibition of tau40 fibrillization” value (full-length tau (tau40)) is reported as 62%, the Emax (full-length tau (tau40)) is reported as 50 to 60% and the Brain penetration ([1]; i.p. 5 mg/Kg, 1 h) is reported as “lack of brain penetration”. The “B/P, ratio between brain/plasma drug level” value [1] was 0.023, the melting point was greater than 300 °C and the IC50 (K18PL tau [3]; [5]) was 1600 nM. The Emax (K18PL tau [3]; Table 5) was 87% and the Emax (K18PL tau [4]; [6]) was 79%.
CCOC(=O)c1nn(-c2cccc(Br)c2)c(=O)c2c(N)scc12 [CNDR-51422, Ethyl 5-amino-3-(3-bromophenyl)-4-oxo-3,4-dihydrothieno[3,4-d]pyridazine-1-carboxylate] showed a melting point of 163 to 165 °C, an inhibition at 80 µM (K18PL tau [3]; Table 4) of 87% and an IC50 (K18PL tau [3]; [7]) of 1000 nM. The “Tau Cent. Assay % Soluble” value (K18PL tau [4]) was 67%.
Work on CCOC(=O)c1ccccc1-n1nc(C(=O)OCC)c2csc(N)c2c1=O [CNDR-51419, Ethyl 5-amino-3-(2-(ethoxycarbonyl)phenyl)-4-oxo-3,4-dihydrothieno[3,4-d]pyridazine-1-carboxylate] yielded a melting point of 176 to 178 °C, an inhibition at 80 µM (K18PL tau [3]; Table 4) of 65% and an IC50 (K18PL tau [3]; [7]) of 1260 nM. For the same compound, the “Tau Cent. Assay % Soluble” value (K18PL tau [4]) was 40%.
With CCOC(=O)c1nn(-c2ccc(NC)cc2)c(=O)c2c(N)scc12 [CNDR-51358, Ethyl 5-amino-3-(4-(methylamino)phenyl)-4-oxo-3,4-dihydrothieno[3,4-d]pyridazine-1-carboxylate] the melting point was 211 to 213 °C, the inhibition at 80 µM (K18PL tau [3]; Table 4) was 76% and the IC50 (K18PL tau [3]; [7]) was 3980 nM. The “Tau Cent. Assay % Soluble” value (K18PL tau [4]) was 61%.
For CC(C)OC(=O)c1nn(-c2ccc(Cl)cc2)c(=O)c2c(N)scc12 [CNDR-51371, Isopropyl 5-amino-3-(4-chlorophenyl)-4-oxo-3,4-dihydrothieno[3,4-d]pyridazine-1-carboxylate], the “Tau40 Sed. Assay, maximal percent inhibition of tau40 fibrillization” value (full-length tau (tau40)) was 61%, the Emax (full-length tau (tau40)) was 50 to 60% and the melting point was 118 to 120 °C. For the same compound, the “Water Solubility” value [2] was 32 µM, the IC50 (K18PL tau [3]; [5]) was 1500 nM and the Emax (K18PL tau [3]; Table 5) was 81%. For the same compound, the Emax (K18PL tau [4]; [6]) was 44%.
For CCOC(=O)c1nn(-c2cccc(C)c2)c(=O)c2c(N)scc12 [CNDR-51423, Ethyl 5-amino-4-oxo-3-(m-tolyl)-3,4-dihydrothieno[3,4-d]pyridazine-1-carboxylate], the melting point was 190 to 191 °C, the inhibition at 80 µM (K18PL tau [3]; Table 4) was 80% and the IC50 (K18PL tau [3]; [7]) was 1260 nM. The “Tau Cent. Assay % Soluble” value (K18PL tau [4]) was 29%.
For CCOC(=O)c1cccc(-n2nc(C(=O)OCC)c3csc(N)c3c2=O)c1 [CNDR-51420, Ethyl 5-amino-3-(3-(ethoxycarbonyl)phenyl)-4-oxo-3,4-dihydrothieno[3,4-d]pyridazine-1-carboxylate], the melting point was 159 to 160 °C, the inhibition at 80 µM (K18PL tau [3]; Table 4) was 74% and the IC50 (K18PL tau [3]; [7]) was 2000 nM. For the same compound, the “Tau Cent. Assay % Soluble” value (K18PL tau [4]) was 83%.
